“Also recorded” adds a separate entry of the source. Read-outs that look alike come from different tables or passages of the source.
What was measured:
PPAR-γ = PPAR-γ expression by Western blot in SSc fibroblasts; format: cell-based, human; conditions: AjA 5 microM and 10 microM
Experimental: (§1) SSc and healthy dermal fibroblasts were cultured in DMEM containing 2.5% of fetal calf serum (FCS) for 24 hours before the experiments. Dermal fibroblasts were incubated with AjA (JB Therapeutics, Newton, Mass., USA), dissolved in dimethyl sulfoxide at 0.1, 1, 5 and 10 microM concentrations for 24 hours. Experiments with the PPAR-γ irreversible antagonist GW9662 (Tocris Bioscience, Bristol, UK), 1 and 10 microM, were performed by incubating dermal fibroblasts for 15 minutes before AjA treatment.
After rinsing twice with PBS, cells were lysed with Ripa buffer (Santa Cruz Biotechnology, Santa Cruz, Calif., USA). Subsequently, cell lysates were incubated on ice for 30 minutes and centrifuged at 14,000 g for 20 minutes. Protein concentrations were measured using the Bradford assay (Bio-Rad, Reinach, Switzerland). […] After incubation with horseradish peroxidase (HRP)-conjugated donkey anti-goat antibodies Santa Cruz Biotechnology) at a dilution of 1:10000 for 45 minutes, signals were detected with ECL Western Blotting Detection Reagents (Amersham Bioscience, Freiburg, Germany) and exposure to x-ray film (SuperRX; Fuji, Dusseldorf, Germany). For confirmation of equal loading of proteins, the amount of alpha-tubulin was determined using mouse anti-human a-tubulin antibodies (dilution 1:1,000; Sigma) and HRP-conjugated rabbit anti-mouse antibodies (dilution 1:5000; Santa Cruz). […]

humans = conditions: doses up to 80 mg/day, cited from earlier work
[1] = tested on: bleomycin-induced lung fibrosis; test: Bleomycin lung fibrosis, Day 21 histology of lung; format: in vivo
CB1 receptor = CB1 receptor (Homo sapiens, UniProt P21554); conditions: cited from earlier work
[2] = tested on: embryogenic fibroblastic 3T3 L1 cells; conditions: process mediated by PPAR-γ; cited from earlier work
[3] = tested on: bleomycin-induced dermal fibrosis in DBA/2J mice; test: Bleomycin-induced dermal fibrosis; format: in vivo
Experimental: Skin fibrosis was induced in two groups of 6-week old DBA/2J mice by local injection of bleomycin. Briefly, 100 microliter of BLM dissolved in 0.9% NaCI at a concentration of 0.5 mg/ml were administered every other day, in well defined areas (1 cm^2) of the upper back. One group of BLM-challenged mice received orally AjA 1 mg/kg/day, dissolved in seed oil. Subcutaneous injections of 100 ul 0.9% NaCI were used as controls. After 21 days, animals were killed by cervical dislocation. The injected skin was removed and processed for analysis. Each treatment group consisted of eight mice. The local ethical committee approved all animal experiments. […].
Three lesional skin samples were taken from every animal of each group and 5 μm skin sections (three for each skin sample) were stained with haematoxylin and eosin. Dermal thickness was calculated at 10× microscopic magnification by measuring the distance between the dermal—epidermal junction and the dermal—subcutaneous fat junction (micrometer) in five randomly selected fields for each skin section. Results were expressed as mean±SD. Two different examiners performed the evaluation blindly.
The collagen content of lesional skin was evaluated by colourimetric quantification of hydroxyproline on three different skin biopsies (3 mm punch) taken from every animal in each group. 15 Absorbencies were measured at 560 nm in triplicate. The results were expressed as μg of hydroxyproline per biopsy (mean±SD).
Skin sections (5 μm) were processed in order to evaluate expression of a smooth muscle actin (α-SMA) (mouse monoclonal antibody) (Santa Cruz Biotechnology, Santa Cruz, Calif., USA) After deparaffinization, skin sections were incubated with 3% bovine serum albumin for 30 minutes to block nonspecific binding, followed by incubation with 3% H2O2 for 5 minutes to block endogenous peroxidase activity. A-SMA staining was performed according to the protocol of manufacturer using M.O.M kit (Vector, UK). Staining was visualized with diaminobenzidine, using a peroxidase substrate kit (Dako, Glostrup Denmark). Cell counts were performed blindly by two different operators, at 40× magnification, in five non-contiguous microscope fields of three sections from each lesional skin sample. Results are expressed as mean±SD of positive spindle-shaped fibroblastic cells per field.

[4] = target: T1, peroxisome proliferated-activated receptor-γ (PPAR-γ) (Homo sapiens, UniProt P37231); conditions: cited from earlier work
T1 sequence (P37231 1-505): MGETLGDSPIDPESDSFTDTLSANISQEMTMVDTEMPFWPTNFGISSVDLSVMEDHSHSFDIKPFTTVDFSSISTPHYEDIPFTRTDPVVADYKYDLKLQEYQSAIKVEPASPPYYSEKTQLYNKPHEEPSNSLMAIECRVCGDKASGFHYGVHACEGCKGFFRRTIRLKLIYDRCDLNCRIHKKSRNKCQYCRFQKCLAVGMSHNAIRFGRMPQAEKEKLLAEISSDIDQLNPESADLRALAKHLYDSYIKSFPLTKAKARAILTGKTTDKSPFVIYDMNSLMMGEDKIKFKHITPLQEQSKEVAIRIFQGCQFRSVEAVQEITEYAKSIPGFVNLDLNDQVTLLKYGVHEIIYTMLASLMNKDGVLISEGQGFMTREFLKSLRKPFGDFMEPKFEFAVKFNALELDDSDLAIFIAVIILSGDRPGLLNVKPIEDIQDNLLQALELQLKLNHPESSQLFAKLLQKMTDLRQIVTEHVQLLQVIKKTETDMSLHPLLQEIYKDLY

CB2 receptor = CB2 receptor (Homo sapiens, UniProt P34972); conditions: cited from earlier work
SSc fibroblasts = test: Collagen (PIP) concentration in supernatant of SSc fibroblasts; format: cell-based, human; conditions: for reversal of AjA inhibitory effect on PIP/collagen production by PPAR-γ antagonist: antagonist 10 μM, pre-incubation 15 minutes before AjA
15d-PGJ2 = 15d-PGJ2 supernatant levels (ELISA) of SSc fibroblasts; format: cell-based, human; conditions: incubation with AjA
Experimental: as §1
(§2) The supernatant was collected and stored at −20° C. prior to and after AjA±GW9662 treatment. An EIA kit (Takara Bio, Otsu, Japan) and ELISA kit (Euroclone, Lugano, Switzerland) were used to assess the procollagen type I carboxy-terminal peptide (PIP) and TGF-β and PGJ2 supernatant levels, respectively. Results are mean±SD of five separate experiments.

[5] = tested on: SSc and healthy fibroblasts; test: Cell viability (MTT assay); format: cell-based, human; conditions: AjA in concentrations up to 10 pM (so in the source), 24 hours, data not shown
Experimental: SSc and healthy fibroblasts were plated at a density of 100000 cells/well in 24 well plate and treated with AjA at concentrations of 0.1, 1, 5 and 10 μM for 24 hours in presence or absence of GW9662 at concentrations of 1 and 10 μM. Cell metabolic activity was measured by 3-(4,5-dimethylthiazol-2-yl)-2,5-diphenyltetrazolium bromide (MTT) assay. After removal of 100 μl of the growth medium, MTT was added at a final concentration of 3 mg/ml, and the cells were incubated at 37° C. for an additional 4 hours. Formazan crystals were dissolved in DMSO and optical density was measured at 570 nm using a spectrophotometer.

TGF-beta = TGF-beta supernatant levels (ELISA) of SSc fibroblasts; format: cell-based, human
Experimental: as §1, §2

[6] = listed as (6aR,10aR)-4-(1,1-dimethylheptyl)-Δ8-tetrahydro-cannabinol-9-carboxylic acid
[7] = AjA 1 mg/kg/day, BLM-challenged mice
[8] = AjA 1 mg/kg/day, after treatment
[9] = AjA 10 pM (so in the source), SSc fibroblasts

CB1 receptor, sequence (P21554 whole entry): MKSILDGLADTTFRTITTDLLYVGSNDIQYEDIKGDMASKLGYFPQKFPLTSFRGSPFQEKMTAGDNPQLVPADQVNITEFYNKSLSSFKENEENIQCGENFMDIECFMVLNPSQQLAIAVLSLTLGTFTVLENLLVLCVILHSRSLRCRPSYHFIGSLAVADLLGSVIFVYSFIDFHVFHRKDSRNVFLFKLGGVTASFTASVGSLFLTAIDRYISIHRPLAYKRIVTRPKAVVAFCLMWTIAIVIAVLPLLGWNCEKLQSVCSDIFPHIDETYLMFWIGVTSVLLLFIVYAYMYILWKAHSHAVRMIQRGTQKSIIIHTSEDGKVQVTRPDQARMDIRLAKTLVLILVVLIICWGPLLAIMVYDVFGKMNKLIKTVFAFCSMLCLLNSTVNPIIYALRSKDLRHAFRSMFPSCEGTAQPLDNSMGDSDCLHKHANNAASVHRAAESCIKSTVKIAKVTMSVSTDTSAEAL
CB2 receptor, sequence (P34972 whole entry): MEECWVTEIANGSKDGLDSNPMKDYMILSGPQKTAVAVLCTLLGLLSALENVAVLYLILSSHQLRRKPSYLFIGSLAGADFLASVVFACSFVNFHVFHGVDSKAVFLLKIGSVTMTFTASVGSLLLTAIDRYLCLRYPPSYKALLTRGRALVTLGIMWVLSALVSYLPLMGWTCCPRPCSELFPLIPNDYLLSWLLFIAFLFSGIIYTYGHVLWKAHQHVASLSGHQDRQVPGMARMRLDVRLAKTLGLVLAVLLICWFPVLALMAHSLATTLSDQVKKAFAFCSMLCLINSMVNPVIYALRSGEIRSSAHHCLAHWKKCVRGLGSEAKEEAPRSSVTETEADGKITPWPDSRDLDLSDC

In the case of `CCCCCCC(C)(C)c1cc(O)c2c(c1)OC(C)(C)[C@@H]1CC=C(C(=O)O)C[C@@H]21` [AjA, (6aR,10aR)-3-(1,1-dimethylheptyl)-6a,7,10,10a-tetrahydro-1-hydroxy-6,6-dimethyl-6H-Dibenz o(b,d)pyran-9-carboxylic acid], the “PPAR-γ protein expression in SSc fibroblasts” value (PPAR-γ) is listed as “completely restored the expression of PPAR-γ”, the tolerability in humans (humans; without significant psychotropic effects) is listed as “well tolerated” and the “chronic neuropathic pain in humans” value (humans) is listed as “can reduce chronic neuropathic pain”. For the same compound, the “lung fibrosis (histology)” value ([1]; AjA 1 and 5 mg/kg qd x 21 d, bleomycin) was “fibrosis was significantly inhibited”, the “parenchymal infiltration of leukocytes in lung” value ([1]; AjA qd x 21 d, more evident in the 5 mg/kg group) was “parenchymal infiltration of leukocytes was reduced” and the “affinity for CB1 receptor” value (CB1 receptor) was “weak ligand”. The “affinity for CB1 receptor” value (CB1 receptor; [6]) was “high affinity”, the “differentiation of 3T3 L1 cells into adipocytes” value [2] was “stimulates the differentiation of embryogenic fibroblastic 3T3 L1 cells into adipocytes” and the “dermal thickness of lesional skin” value ([3]; AjA 1 mg/kg/day orally, 21 days, BLM-challenged DBA/2J mice) was “reduced skin thickness nearly to control levels; also recorded: dermal thickness was equal to control group”. For the same compound, the “hydroxyproline content of lesional skin (collagen deposition)” value ([3]; AjA 1 mg/kg/day, 21 days, BLM-challenged mice) was “completely abrogated the collagen deposition induced by BLM; also recorded: dermal thickness was equal to control group”, the “alpha-SMA positive cells, immunohistochemistry” value [3, 7] was “strong downregulation of alpha-SMA positive cells” and the “leukocyte infiltration, ECM accumulation and fat layer replacement in lesional skin (histology)” value [3, 7] was “the subcutaneous leukocyte infiltration, the accumulation of ECM and the fat layer replacement were reduced; also recorded: strongly reduced the leukocyte infiltration”. For the same compound, the “reduction of number of myofibroblasts (α-SMA positive spindle-shaped fibroblastic cells) in lesional skin” value [3, 7] was “up to 26%”, the “body weight, BLM/AjA group vs BLM group” value [3, 8] was “did not differ in terms of body weight” and the “signs of toxicity (ruffled fur, reduced activity)” value [3, 8] was “no other signs of toxicity”. The “binding to and activation of PPAR-γ” value [4] was “binds to and activates”, the “affinity for CB2 receptor” value (CB2 receptor) was “weak ligand” and the “affinity for CB2 receptor” value (CB2 receptor; [6]) was “high affinity”. The “supernatant PIP levels, dose dependence” value (SSc fibroblasts; AjA 0.1, 1, 5 and 10 μM, 24 hours, SSc fibroblasts) was “dose-dependently decreased the levels of PIP; also recorded: dose-dependent reduction of supernatant PIP levels”, the inhibition at 10 µM (SSc fibroblasts; Homo sapiens, Fibroblast, AjA 10 μM, 24 hours, SSc fibroblasts supernatant, read-out: mean PIP reduction (maximal inhibition)) was at most 60% and the “levels of 15d-PGJ2 in supernatants of SSc fibroblasts” value (15d-PGJ2) was “strongly increased the levels of 15d-PGJ2 in dose-dependent manner”. The “metabolic activity measured by the MTT assay” value [5] was “not affected”, the “duration of significant TGF-beta downregulation” value (TGF-beta; [9]) was at most 24 h and the “time of maximum TGF-beta inhibition” value (TGF-beta; [9]) was 2 h. For the same compound, the “supernatant TGF-beta” value (TGF-beta; AjA 5 and 10 microM, SSc fibroblasts) was “significant reduction of supernatant TGF-beta”, the “time of maximum TGF-beta suppression” value (TGF-beta; SSc fibroblasts, AjA) was 2 h and the “reduction in TGF-beta concentrations in supernatants from SSc fibroblasts” value (TGF-beta; incubation with AjA, dose-dependent) was “up to 50%”.

With `O=C(Nc1ccccc1)c1cc([N+](=O)[O-])ccc1Cl` [GW9662, reference compound] the “reversal of AjA inhibitory effect on PIP/collagen production by PPAR-γ antagonist” value (SSc fibroblasts; SSc fibroblasts) was “completely reverted”, the “reversal of AjA inhibitory effect on PIP/collagen production by PPAR-γ antagonist” value (SSc fibroblasts; SSc fibroblasts, listed as GW966) was “completely prevented the anti-fibrotic effects of AjA” and the “prevention of AjA inhibitory effect on collagen production by PPAR-γ antagonist, dose dependence” value (SSc fibroblasts; antagonist 1-10 μM pre-incubation) was “prevented by GW9662 in a dose-dependent manner”.

Reference: US20180116999A1, “METHODS OF TREATING FIBROTIC DISEASES USING TETRAHYDROCANNABINOL-11-OIC ACIDS” (Corbus Pharmaceuticals, Inc., priority 2011, published 2018)
